In publication PMC9229949 (Pharmaceutics, 2022):

Key:
human TrxR (hTrxR) = biological target: T1, human TrxR (hTrxR) (Homo sapiens, UniProt Q16881); experiment: Inhibition of enzymatic activity of recombinant human TrxR; type: biochemical; conditions: recombinant enzyme, 15 min preincubation; mean of one experiment; read-out: IC50 for TrxRs, Human (Sec)
T1 construct: made in house
T1 sequence (Q16881 151-649 limits assumed): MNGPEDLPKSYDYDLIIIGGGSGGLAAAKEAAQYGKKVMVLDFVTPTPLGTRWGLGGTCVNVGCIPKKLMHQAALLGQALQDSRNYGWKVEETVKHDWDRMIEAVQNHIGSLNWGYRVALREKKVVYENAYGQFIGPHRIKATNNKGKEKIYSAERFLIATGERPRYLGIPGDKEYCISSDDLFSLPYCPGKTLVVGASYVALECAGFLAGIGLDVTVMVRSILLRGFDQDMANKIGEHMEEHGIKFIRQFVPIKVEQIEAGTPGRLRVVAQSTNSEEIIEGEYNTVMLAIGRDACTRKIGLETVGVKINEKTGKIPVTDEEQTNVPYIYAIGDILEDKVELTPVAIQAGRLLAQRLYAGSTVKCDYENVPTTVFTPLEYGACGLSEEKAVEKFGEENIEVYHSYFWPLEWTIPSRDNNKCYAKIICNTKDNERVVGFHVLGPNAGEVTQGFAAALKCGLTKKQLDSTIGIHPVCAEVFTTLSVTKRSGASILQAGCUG
Description: (§1) The codon-optimized sequence for PfTrxR [27, 28] was synthesized and subcloned into pET-15b (Genscript) and expressed and purified as for human glutathione reductase (hGR). Recombinant Schistosoma mansoni (S. mansoni) thioredoxin glutathione reductase (SmTGR), human TrxR (hTrxR), and hGR proteins were expressed and purified as described. TrxR and TGR enzyme inhibition assays were performed in triplicate at 25 °C in 0.1 M potassium phosphate (pH 7.4), 10 mM EDTA, 100 µM NADPH and 0.01% Tween-20. SmTGR (4 nM), hTrxR (4 nM), and PfTrxR (50 nM) were preincubated with the compounds for 15 min. The reaction was started with addition of an equal volume of 5,5′-dithiobis(2-nitrobenzoic acid) (6 mM) and NADPH (100 µM). The increase in A412 during the first 3 min was recorded. […]. The reactions were performed in triplicate. The IC50s were calculated in Prism version 5.01.

PfTrxR = biological target: T2, PfTrxR (Plasmodium falciparum, UniProt Q25861); experiment: Inhibition of enzymatic activity of recombinant P. falciparum TrxR; type: biochemical; conditions: recombinant enzyme, 15 min preincubation; mean of one experiment; read-out: IC50 for TrxRs, P. falciparum (Cys)
T2 construct: made in house
T2 sequence (Q25861 1-541): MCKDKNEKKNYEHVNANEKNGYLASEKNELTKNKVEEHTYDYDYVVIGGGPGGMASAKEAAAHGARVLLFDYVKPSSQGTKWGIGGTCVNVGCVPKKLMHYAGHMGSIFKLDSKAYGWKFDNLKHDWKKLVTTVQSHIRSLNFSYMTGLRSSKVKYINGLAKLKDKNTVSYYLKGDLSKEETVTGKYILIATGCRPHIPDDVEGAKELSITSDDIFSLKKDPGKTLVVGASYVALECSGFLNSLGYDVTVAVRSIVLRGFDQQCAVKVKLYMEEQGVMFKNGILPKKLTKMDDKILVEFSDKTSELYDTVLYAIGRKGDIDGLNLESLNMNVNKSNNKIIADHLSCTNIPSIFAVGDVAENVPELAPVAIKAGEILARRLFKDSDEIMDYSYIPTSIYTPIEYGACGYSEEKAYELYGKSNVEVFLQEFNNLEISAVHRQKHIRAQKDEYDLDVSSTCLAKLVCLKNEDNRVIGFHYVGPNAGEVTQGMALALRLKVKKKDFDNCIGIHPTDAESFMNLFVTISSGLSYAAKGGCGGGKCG
Description: as §1

[1] = biological target: T3, S. mansoni thioredoxin-glutathione reductase (SmTGR) (Schistosoma mansoni, UniProt Q962Y6); experiment: Inhibition of enzymatic activity of recombinant S. mansoni thioredoxin glutathione reductase; type: biochemical; conditions: 15 min preincubation, mean of one experiment, read-out: IC50 for TrxRs, S. mansoni (Sec)
T3 construct: made in house
T3 sequence (Q962Y6 1-598): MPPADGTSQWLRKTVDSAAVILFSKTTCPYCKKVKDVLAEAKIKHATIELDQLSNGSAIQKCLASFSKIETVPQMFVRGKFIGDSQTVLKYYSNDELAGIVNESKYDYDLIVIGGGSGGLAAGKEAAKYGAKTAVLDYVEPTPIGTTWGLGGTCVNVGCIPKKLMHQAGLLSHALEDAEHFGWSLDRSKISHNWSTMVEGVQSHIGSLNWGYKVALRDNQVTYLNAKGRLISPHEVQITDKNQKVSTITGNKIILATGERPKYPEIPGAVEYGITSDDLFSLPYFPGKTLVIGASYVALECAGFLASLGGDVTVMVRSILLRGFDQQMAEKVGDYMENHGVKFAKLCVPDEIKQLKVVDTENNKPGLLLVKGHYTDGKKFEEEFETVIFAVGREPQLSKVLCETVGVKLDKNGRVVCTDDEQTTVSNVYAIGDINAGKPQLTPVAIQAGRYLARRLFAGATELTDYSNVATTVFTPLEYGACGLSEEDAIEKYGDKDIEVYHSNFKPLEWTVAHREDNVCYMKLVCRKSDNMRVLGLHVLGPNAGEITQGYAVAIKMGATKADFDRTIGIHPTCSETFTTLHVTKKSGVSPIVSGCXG
Description: as §1

[2] = biological target: T4, human glutathione reductase (hGR) (Homo sapiens, UniProt P00390); experiment: Inhibition of enzymatic activity of recombinant human glutathione reductase; type: biochemical; conditions: recombinant enzyme, 15 min preincubation; mean of one experiment; read-out: IC50, Human GR
T4 construct: made in house
T4 sequence (P00390 44-522): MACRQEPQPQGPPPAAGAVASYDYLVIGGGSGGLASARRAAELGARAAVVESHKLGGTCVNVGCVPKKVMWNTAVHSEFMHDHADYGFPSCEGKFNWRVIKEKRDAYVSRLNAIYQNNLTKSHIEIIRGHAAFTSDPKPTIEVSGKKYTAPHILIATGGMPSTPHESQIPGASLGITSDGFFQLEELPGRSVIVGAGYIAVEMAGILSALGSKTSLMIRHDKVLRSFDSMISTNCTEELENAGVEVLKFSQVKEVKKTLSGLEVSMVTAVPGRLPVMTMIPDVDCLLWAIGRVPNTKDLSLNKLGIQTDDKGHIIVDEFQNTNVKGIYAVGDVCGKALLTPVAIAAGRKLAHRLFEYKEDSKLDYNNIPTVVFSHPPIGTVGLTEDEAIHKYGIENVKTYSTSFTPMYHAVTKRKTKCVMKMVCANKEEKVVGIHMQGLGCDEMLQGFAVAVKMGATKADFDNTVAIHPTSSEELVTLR
Description: as §1

[3] = tested on: P. falciparum 3D7 (CQ-susceptible) asexual blood stages; design: method as in PMID 29465117; conditions: in vitro antiplasmodial activity; read-out: P. falciparum 3D7 (Cell Based Activity), IC50; cited from earlier work

CC(=O)OC[C@H]1O[C@@H]([S-])[C@H](OC(C)=O)[C@@H](OC(C)=O)[C@@H]1OC(C)=O.CCP(CC)CC.[Au+] [Auranofin, auranofin]
IC50 (human TrxR (hTrxR)): 0.02 µM | IC50 (PfTrxR): 0.062 µM | IC50 [1]: 0.007 µM | IC50 [2]: 40 µM | IC50 [3]: 0.06 µM
